What all share (test): MIC, standard broth micro-dilution assay
Holding throughout (assay type): cell-based
Background: Dilution methods test growth across graded concentrations, often in twofold steps.

For experiment [1], the system named is Entercoccus gallinarum 245. The method, then:
(§1) The formula I compounds have in vitro and in vivo activity against Gram-positive pathogenic bacteria. The MIC's were determined using a standard broth micro-dilution assay.

Experiment [2] has as its system Entercoccus faecalis 2041. The method, then: as §1
The subject of a further experiment is Entercoccus faecalis 276. Here is the method:
as §1

SMILES strings stand for the structures. Converted amounts (≈) assume the structure as drawn.

Turning to `CNC(CC(C)C)C(=O)NC1C(=O)NC(CC(N)=O)C(=O)NC2C(=O)NC3C(=O)NC(C(=O)NC(C(=O)O)c4cc(O)cc(O)c4-c4cc3ccc4O)C(OC3CC(C)(N)C(O)C(C)O3)c3ccc(c(Cl)c3)Oc3cc2cc(c3OC2OC(CO)C(O)C(O)C2OC2CC(C)(NCc3ccc(Oc4ccccc4Cl)c([N+](=O)[O-])c3)C(O)C(C)O2)Oc2ccc(cc2Cl)C1O` (stereo not drawn) [Compound 88, 4-[2-chlorophenoxy]-3-nitrobenzyl], the minimum inhibitory concentration (MIC) (in experiment [1]; in experiment [2]; against Entercoccus faecalis 276) was at most 0.06 µg/mL throughout.

Regarding `CNC(CC(C)C)C(=O)NC1C(=O)NC(CC(N)=O)C(=O)NC2C(=O)NC3C(=O)NC(C(=O)NC(C(=O)O)c4cc(O)cc(O)c4-c4cc3ccc4O)C(OC3CC(C)(N)C(O)C(C)O3)c3ccc(c(Cl)c3)Oc3cc2cc(c3OC2OC(CO)C(O)C(O)C2OC2CC(C)(NCc3ccc(OC)c(OCC4CCCCC4)c3)C(O)C(C)O2)Oc2ccc(cc2Cl)C1O` (stereo not drawn) [Compound 142, 3-[cyclohexylmethoxy]-4-methoxybenzyl], the MIC – broadly, the smallest concentration in the dilution series that meets the test's criterion for growth inhibition – in experiment [1] was 1 µg/mL (≈ 0.548 µM); in experiment [2], at most 0.06 µg/mL; in the experiment on Entercoccus faecalis 276, 1 µg/mL (≈ 0.548 µM).

Regarding `CCCCCCCC#Cc1ccc(CN[C@@]2(C)C[C@H](O[C@H]3[C@H](Oc4c5cc6cc4Oc4ccc(cc4Cl)[C@@H](O[C@H]4C[C@](C)(N)[C@@H](O)[C@H](C)O4)[C@@H]4NC(=O)[C@H](NC(=O)[C@@H]6NC(=O)[C@H](CC(N)=O)NC(=O)[C@H](NC(=O)[C@@H](CC(C)C)NC)[C@H](O)c6ccc(c(Cl)c6)O5)c5ccc(O)c(c5)-c5c(O)cc(O)cc5[C@@H](C(=O)O)NC4=O)O[C@H](CO)[C@@H](O)[C@@H]3O)O[C@@H](C)[C@@H]2O)cc1` [Compound 232, 4-[1-nonynyl]benzyl], the figures for the MIC (in experiment [1]; in experiment [2]; in the experiment with Entercoccus faecalis 276) were 32 µg/mL (≈ 17.7 µM), 2 µg/mL (≈ 1.11 µM) and 8 µg/mL (≈ 4.43 µM), respectively.

`CNC(CC(C)C)C(=O)NC1C(=O)NC(CC(N)=O)C(=O)NC2C(=O)NC3C(=O)NC(C(=O)NC(C(=O)O)c4cc(O)cc(O)c4-c4cc3ccc4O)C(OC3CC(C)(N)C(O)C(C)O3)c3ccc(c(Cl)c3)Oc3cc2cc(c3OC2OC(CO)C(O)C(O)C2OC2CC(C)(NCc3ccc(OC)c4ccccc34)C(O)C(C)O2)Oc2ccc(cc2Cl)C1O` (stereo not drawn) [Compound 15, 4-methoxy-1-naphthylmethyl]: the minimal inhibitory concentration (MIC) (in experiment [1]; in experiment [2]; with Entercoccus faecalis 276) was at most 0.06 µg/mL each time.

With `CNC(CC(C)C)C(=O)NC1C(=O)NC(CC(N)=O)C(=O)NC2C(=O)NC3C(=O)NC(C(=O)NC(C(=O)O)c4cc(O)cc(O)c4-c4cc3ccc4O)C(OC3CC(C)(N)C(O)C(C)O3)c3ccc(c(Cl)c3)Oc3cc2cc(c3OC2OC(CO)C(O)C(O)C2OC2CC(C)(NCc3cc(C)cs3)C(O)C(C)O2)Oc2ccc(cc2Cl)C1O` (stereo not drawn) [Compound 66, 3-methyl-5-thienylmethyl], the minimum inhibitory concentration (MIC) is 8 µg/mL (≈ 4.7 µM) in experiment [1], at most 0.06 µg/mL in experiment [2] and at most 0.06 µg/mL against Entercoccus faecalis 276.

`CNC(CC(C)C)C(=O)NC1C(=O)NC(CC(N)=O)C(=O)NC2C(=O)NC3C(=O)NC(C(=O)NC(C(=O)O)c4cc(O)cc(O)c4-c4cc3ccc4O)C(OC3CC(C)(N)C(O)C(C)O3)c3ccc(c(Cl)c3)Oc3cc2cc(c3OC2OC(CO)C(O)C(O)C2OC2CC(C)(NCc3ccc4ccccc4n3)C(O)C(C)O2)Oc2ccc(cc2Cl)C1O` (stereo not drawn) [Compound 30, 2-quinolylmethyl]: the values for the minimum inhibitory concentration (MIC) (in experiment [1]; in experiment [2]; in the experiment with Entercoccus faecalis 276) were at most 0.06 µg/mL, at most 0.06 µg/mL and 0.25 µg/mL (≈ 0.144 µM), respectively.

As to `CCCc1ccc(-c2ccc(CNC3(C)CC(OC4C(Oc5c6cc7cc5Oc5ccc(cc5Cl)C(OC5CC(C)(N)C(O)C(C)O5)C5NC(=O)C(NC(=O)C7NC(=O)C(CC(N)=O)NC(=O)C(NC(=O)C(CC(C)C)NC)C(O)c7ccc(c(Cl)c7)O6)c6ccc(O)c(c6)-c6c(O)cc(O)cc6C(C(=O)O)NC5=O)OC(CO)C(O)C4O)OC(C)C3O)cc2)cc1` (stereo not drawn) [Compound 107, 4-[4-propylphenyl]benzyl], the MIC in experiment [1] is 2 µg/mL (≈ 1.11 µM); in experiment [2], 0.5 µg/mL (≈ 0.278 µM); in the experiment with Entercoccus faecalis 276, 1 µg/mL (≈ 0.555 µM).

For the origin of these results see patent publication US5843889A, “Glycopeptide antibiotic derivatives” (Eli Lilly and Company, priority 1997, dated 1998).
